# Measured values reported in US9498533B2, “Drug delivery compositions and methods” (Board of Regents of the University of Nebraska, priority 2011, dated 2016).
# Legend:
# [1] = tested on: breast cancer cells that overexpress HER2; assay: HER2 expression and Akt activation in breast cancer cells; format: cell-based
# [2] = tested on: MCF-7 human breast cancer cells; assay: In vitro cytotoxicity, MTT assay; format: cell-based; settings: n = 4
# Experimental: Cytotoxicity of DOX-loaded cl-micelles was assessed in MCF-7 cells by a standard MTT assay as described (Kim et al. (2009) J. Control Release, 138:197-204). Briefly, cells were seeded in a 96-well microtiter plates with 5,000 cells per well and allowed to adhere for 24 hours prior to the assay. Cells were exposed to various doses (0-50 μg/ml on DOX basis) of DOX alone, polymer micelles alone, and DOX-loaded cl-micelles for 24 hours at 37° C., followed by washing with PBS, and maintaining in DMEM medium with 10% FBS for additional 72 hours. 25 μl of MTT indicator dye (5 mg/ml) was added to each well and the cells were incubated for 2 hours at 37° C. in the dark. 100 μl of 50% DMF-20% SDS solution was added to each well and kept overnight at 37° C. Absorption was measured at 570 nm in a microplate reader (SpectraMax® M5, Molecular Devices Co., USA) using wells without cells as blanks. […]
# [3] = carboxylic groups; cited from earlier work
smiles,measurement,setting,value
"C=CCNC1=C2C[C@@H](C)C[C@H](OC)[C@H](O)[C@@H](C)/C=C(\C)[C@H](OC(N)=O)[C@@H](OC)/C=C\C=C(/C)C(=O)NC(=CC1=O)C2=O [17-AAG, 17-N-allylamino-17-demethoxygeldanamycin]",Akt activation,[1],inhibited Ala activation
same,HER2 expression,[1],downregulation of HER2 expression
"COc1cccc2c1C(=O)c1c(O)c3c(c(O)c1C2=O)C[C@@](O)(C(=O)CO)C[C@@H]3O[C@H]1C[C@H](N)[C@H](O)[C@H](C)O1.Cl [Free DOX, Doxorubicin hydrochloride]",IC50 (DOX equivalents),"[2]; MCF-7, 6 hours incubation",0.283 ± 0.049 µg/mL
same,IC50 (DOX equivalents),"[2]; MCF-7, 24 hours incubation",0.046 ± 0.021 µg/mL
N[C@@H](CCC(=O)O)C(=O)O [glutamic acid],pKa,[3],ca. 4.4
